In ChEMBL document CHEMBL3351565, “Cycloartane-type triterpenes from Euphorbia fischeriana stimulate human CYP3A4 promoter activity” (Bioorg Med Chem Lett, 2014):

What was measured:
CYP3A4 = CYP3A4 (Homo sapiens, UniProt P08684); experiment: (§1) Induction of CYP3A4 in human HepG2 cells at 10 uM after 24 hrs by luciferase reporter gene assay in presence of hPXR relative to control; settings: HepG2 cells with hPXR and CYP3A4 luciferase reporter
Hepatocyte = experiment: Induction of CYP3A4 mRNA expression in human primary hepatocytes at 10 uM after 24 hrs by RT-PCR analysis
Cytochrome P450 3A4 = Cytochrome P450 3A4 (Homo sapiens, UniProt P08684); experiment: as §1; settings: hepg2, 24 h, 10 µM
Chain of Cytochrome P450 3A4 (P08684 whole entry): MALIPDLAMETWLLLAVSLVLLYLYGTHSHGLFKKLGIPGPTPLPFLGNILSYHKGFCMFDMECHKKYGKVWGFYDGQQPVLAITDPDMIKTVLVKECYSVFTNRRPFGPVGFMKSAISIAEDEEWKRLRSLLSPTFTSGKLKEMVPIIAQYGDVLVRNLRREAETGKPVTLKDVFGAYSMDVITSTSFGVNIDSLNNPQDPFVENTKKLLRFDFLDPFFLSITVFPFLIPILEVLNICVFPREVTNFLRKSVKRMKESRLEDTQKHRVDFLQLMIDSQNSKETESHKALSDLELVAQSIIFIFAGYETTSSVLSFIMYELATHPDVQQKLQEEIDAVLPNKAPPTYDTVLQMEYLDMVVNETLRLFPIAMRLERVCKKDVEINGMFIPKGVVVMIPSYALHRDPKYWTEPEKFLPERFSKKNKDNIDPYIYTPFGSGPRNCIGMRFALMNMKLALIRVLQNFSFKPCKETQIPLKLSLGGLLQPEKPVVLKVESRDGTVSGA

Chain of CYP3A4 (P08684 whole entry): as above

SMILES	fold induction at 24 h, 10 µM (CYP3A4)	Activity (Hepatocyte)	Activity (Cytochrome P450 3A4)
CC(C)C1(CC[C@@H](C)[C@H]2CC[C@@]3(C)[C@@H]4CC[C@H]5C(C)(C)[C@@H](O)CC[C@@]56C[C@@]46CC[C@]23C)CO1 (mixture of isomers)	–	–	Active
CC(C)C(=O)CC[C@@H](C)[C@H]1CC[C@@]2(C)[C@@H]3CC[C@H]4C(C)(C)[C@@H](O)CC[C@@]45C[C@@]35CC[C@]12C	4	Active	–
CC(=O)O[C@H]1CC[C@]23C[C@]24CC[C@]2(C)[C@@H]([C@H](C)CCC(=O)C(C)C)CC[C@@]2(C)[C@@H]4CC[C@H]3C1(C)C	–	–	Not Active

Next, values leading:

fold induction at 24 h, 10 µM (CYP3A4)	Activity (Hepatocyte)	Activity (Cytochrome P450 3A4)	SMILES
4	Active	–	C=C(CC[C@@H](C)[C@H]1CC[C@@]2(C)[C@@H]3CC[C@H]4C(C)(C)[C@@H](O)CC[C@@]45C[C@@]35CC[C@]12C)C(C)(C)O
9.4	Not Active	–	COC(CO)(CC[C@@H](C)[C@H]1CC[C@@]2(C)[C@@H]3CC[C@H]4C(C)(C)[C@@H](O)CC[C@@]45C[C@@]35CC[C@]12C)C(C)C (mixture of isomers)
–	–	Not Active	C=C(C)[C@@H]1CC[C@]2(C)CC[C@]3(C)[C@H](CC[C@@H]4[C@@]5(C)CC[C@H](O)C(C)(C)[C@@H]5CC[C@]43C)[C@@H]12 [LUPEOL]
–	–	Not Active	CC(=O)O[C@H]1CC[C@]2(C)C3=CC=C4[C@@H]5CC(C)(C)CC[C@]5(C)CC[C@@]4(C)[C@]3(C)CC[C@H]2C1(C)C
–	–	Not Active	C=C(C)[C@@H]1CC[C@]2(C)CC[C@]3(C)[C@H](CC[C@@H]4[C@@]5(C)CC[C@@H](O)C(C)(C)[C@@H]5CC[C@]43C)[C@@H]12
